Reference: ChEMBL document CHEMBL1138876, “An introduction of a pyridine group into the structure of prolyl oligopeptidase inhibitors” (Bioorg Med Chem Lett, 2006)
≈ marks a conversion by molar mass, not a printed value.

How the values were obtained:
[1] = Partition co-efficient, log P by pH metric titration; assay type: physicochemical; conditions: octanol/water
[2] = Inhibition of POP in pig brain; parameters: species or system Sus scrofa
[3] = Partition co-efficient, log P by shake-flask method; assay type: physicochemical; conditions: octanol/water
[4] = Solubility in phosphate buffer at pH 7.4; assay type: physicochemical
[5] = Dissociation constant, pKa of the compound; assay type: physicochemical

Row | SMILES | logP [1] | IC50 [2] | logP [3] | solubility [4] | pKa [5]
1 | O=C([C@@H]1CCCN1C(=O)c1cccnc1)N1CCCC1 | -0.3 | 44 nM | – | – | –
2 | CC(C)(C)[C@H]1CC[C@@H](C(=O)N2CCCC2)N1C(=O)CCCc1ccccc1 | – | – | 3.3 | 900 µg/mL (≈ 2.43 mM) | –
3 | O=C([C@@H]1CCCN1C(=O)CCc1cccnc1)N1CCCC1 | 0.3 | 30 nM | – | – | –
4 | O=C(NCc1cccnc1)C1=CCCC1C(=O)N1CCCC1 (stereo not drawn) | 0.4 | 9.7 nM | – | > 6000 µg/mL | 4.4
5 | O=C(NCc1ccccc1)C1=CCCC1C(=O)N1CCCC1 (stereo not drawn) | – | 9 nM | 1.6 | 3000 µg/mL (≈ 10.1 mM) | –
6 | O=C(NCCc1ccncc1)C1=CCCC1C(=O)N1CCCC1 (stereo not drawn) | 0.5 | 4.8 nM | – | – | 4.4
7 | O=C(NCCc1cccnc1)C1=CCCC1C(=O)N1CCCC1 (stereo not drawn) | 0.6 | 2.2 nM | – | – | 4.4
8 | O=C(NCCc1ccccn1)C1=CCCC1C(=O)N1CCCC1 (stereo not drawn) | 0.6 | 5.2 nM | – | – | 4.4
9 | O=C(NCCc1ccccc1)C1=CCCC1C(=O)N1CCCC1 (stereo not drawn) | – | 1.5 nM | 1.9 | – | –
10 | O=C(NCc1ccccn1)C1=CCCC1C(=O)N1CCCC1 (stereo not drawn) | 0.3 | 24 nM | – | – | 4.4
11 | O=C([C@@H]1CCCN1C(=O)Cc1cccnc1)N1CCCC1 | -0.2 | 56 nM | – | – | –
12 | CC(C)(C)[C@H]1CC[C@@H](C(=O)N2CCCC2)N1C(=O)CCc1cccnc1 | 1.8 | 13 nM | – | – | –
13 | O=C([C@@H]1CCCN1C(=O)CCCc1ccccc1)N1CCCC1 | – | – | – | > 6000 µg/mL | –
14 | O=C(NCc1ccncc1)C1=CCCC1C(=O)N1CCCC1 (stereo not drawn) | 0.4 | 19 nM | – | – | 4.4
15 | CC(C)(C)[C@H]1CC[C@@H](C(=O)N2CCCC2)N1C(=O)CCCc1cccnc1 | 2 | 2.1 nM | – | > 6000 µg/mL | –
